Experimental data published in ChEMBL document CHEMBL1201862, “PubChem BioAssay data set” (2004).
Active and inactive are the calls of the source.

What was measured:
[1] = target: Nonstructural protein 1 (Influenza A virus, UniProt Q194T2); format: functional, Influenza A virus (A/California/07/2009(H1N1))
[2] = cells; format: functional, cell-based
[3] = cells; format: functional, cell-based; remark: listed apart in the source
[4] = inhibitors of clade B AD8 Env fusion, dose response, cell-based, cherry-pick (AID 652062); format: functional;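 note: luciferase signal from cell-cell fusion driven by HIV-1 clade B AD8 Env; potency is for inhibitors of fusion seen as a drop in luminescence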
[5] = inhibitors of HIV Env-driven cell fusion, dose response, cherry-pick (AID 652057); format: functional, cell-based
[6] = ZM109 Env clade C HIV-1 fusion inhibitors, dose response, HeLa effector, CEM target cells, luciferase, cherry-pick (AID 652058); format: functional, cell-based
[7] = inhibitors of firefly luciferase expression or activity, dose response, H4 neuroglioma cells, luminescence (AID 1990); format: functional, cell-based
[8] = Luminescence Cell-Based Dose Response HTS to Identify Inhibitors of 5'UTR Stem-Loop Driven Prion Protein mRNA Translation in H4 Neuroglioblastoma Cells. [Related pubchem assays: 1827 (Project Summary), 1813 (Primary HTS)]; format: functional
[9] = off-target signal loss in HeLa-CEM21 co-culture – HeLa F-luc CTL cells, cherry-picked, counter-screen for HIV-1 Env fusion inhibitor project, dose response (AID 652040); format: functional, cell-based;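 note: potency for signal decrease marking cytotoxic or nonspecific inhibition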
[10] = target: T1, Histone-lysine N-methyltransferase NSD2 (Homo sapiens, UniProt O96028); format: biochemical
T1 sequence (O96028 whole entry): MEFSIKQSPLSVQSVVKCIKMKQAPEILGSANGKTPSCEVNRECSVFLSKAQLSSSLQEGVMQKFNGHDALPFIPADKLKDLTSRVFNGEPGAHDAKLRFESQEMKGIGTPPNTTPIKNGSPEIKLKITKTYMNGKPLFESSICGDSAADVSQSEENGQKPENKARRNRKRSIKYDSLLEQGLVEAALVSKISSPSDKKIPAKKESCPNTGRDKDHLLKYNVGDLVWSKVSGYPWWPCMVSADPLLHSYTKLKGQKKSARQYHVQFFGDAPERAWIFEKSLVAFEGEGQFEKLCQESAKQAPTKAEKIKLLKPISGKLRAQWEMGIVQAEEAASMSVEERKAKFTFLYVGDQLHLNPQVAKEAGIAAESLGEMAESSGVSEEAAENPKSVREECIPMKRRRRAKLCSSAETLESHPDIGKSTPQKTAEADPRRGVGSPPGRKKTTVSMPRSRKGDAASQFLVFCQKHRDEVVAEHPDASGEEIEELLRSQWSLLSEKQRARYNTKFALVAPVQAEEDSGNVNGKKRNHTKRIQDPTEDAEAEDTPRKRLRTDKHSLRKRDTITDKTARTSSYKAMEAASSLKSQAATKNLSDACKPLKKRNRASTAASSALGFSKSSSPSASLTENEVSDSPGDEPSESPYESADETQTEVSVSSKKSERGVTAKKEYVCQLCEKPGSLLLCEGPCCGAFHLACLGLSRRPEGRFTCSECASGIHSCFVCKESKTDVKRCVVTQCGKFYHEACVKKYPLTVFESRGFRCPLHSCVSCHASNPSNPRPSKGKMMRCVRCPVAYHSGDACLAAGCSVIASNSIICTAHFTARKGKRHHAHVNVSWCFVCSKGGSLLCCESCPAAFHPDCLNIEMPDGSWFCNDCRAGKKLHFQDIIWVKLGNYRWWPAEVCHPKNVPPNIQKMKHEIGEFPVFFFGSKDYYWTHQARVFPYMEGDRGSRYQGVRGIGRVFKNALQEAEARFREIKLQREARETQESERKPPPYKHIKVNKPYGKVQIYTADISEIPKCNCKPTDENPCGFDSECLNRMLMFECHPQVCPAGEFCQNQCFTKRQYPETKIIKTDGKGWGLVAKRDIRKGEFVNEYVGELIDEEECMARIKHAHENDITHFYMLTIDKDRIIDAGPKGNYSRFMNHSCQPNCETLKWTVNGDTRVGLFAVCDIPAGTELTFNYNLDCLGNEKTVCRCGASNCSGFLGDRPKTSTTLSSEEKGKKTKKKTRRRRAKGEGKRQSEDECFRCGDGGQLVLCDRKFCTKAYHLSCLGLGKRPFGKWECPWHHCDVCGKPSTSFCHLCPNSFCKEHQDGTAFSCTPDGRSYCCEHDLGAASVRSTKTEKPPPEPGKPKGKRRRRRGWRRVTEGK

[11] = target: Cytochrome P450 2C9 (Homo sapiens, UniProt P11712)
[12] = target: Cytochrome P450 3A4 (Homo sapiens, UniProt P08684);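 note: CYP3A4 tested as one member of a cytochrome P450 panel screen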
[13] = microbe, parasite or virus in culture; format: functional; conditions: Mycobacterium tuberculosis
[14] = HepG2 cell cytotoxicity, dose response, cytotoxicity control, plate reader, cherry-pick, antagonist series (AID 743416); format: functional, cell-based
[15] = LGR2 antagonists, dose response, cell-based, HEK293, CRE-luciferase reporter, cherry pick, set 2 (AID 743343); format: functional;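 note: transfected cells were stimulated with diluted bursicon conditioned medium after compound addition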
[16] = MC4R antagonists, dose response, counter-screen for LGR2 antagonist project, cell-based, plate reader, cherry pick (AID 743444); format: functional;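 note: transfected HEK 293 cells stimulated with alpha-MSH peptide; potency of inhibitors of the alpha-MSH evoked signal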
[17] = target: FAD-linked sulfhydryl oxidase ALR (Homo sapiens, UniProt P55789); assay: inhibitors of human ALR sulfhydryl oxidase, dose response, biochemical, H2O2 detection, luminescence, cherry-pick (AID 493248)
[18] = target: T2, Leucine aminopeptidase (Plasmodium falciparum 3D7, UniProt Q8IL11); assay: P. falciparum M17LAP inhibitors, primary screen, biochemical, fluorogenic H-Leu-NHMec substrate, 1536-well (AID 1619); format: functional
T2 sequence (Q8IL11 whole entry): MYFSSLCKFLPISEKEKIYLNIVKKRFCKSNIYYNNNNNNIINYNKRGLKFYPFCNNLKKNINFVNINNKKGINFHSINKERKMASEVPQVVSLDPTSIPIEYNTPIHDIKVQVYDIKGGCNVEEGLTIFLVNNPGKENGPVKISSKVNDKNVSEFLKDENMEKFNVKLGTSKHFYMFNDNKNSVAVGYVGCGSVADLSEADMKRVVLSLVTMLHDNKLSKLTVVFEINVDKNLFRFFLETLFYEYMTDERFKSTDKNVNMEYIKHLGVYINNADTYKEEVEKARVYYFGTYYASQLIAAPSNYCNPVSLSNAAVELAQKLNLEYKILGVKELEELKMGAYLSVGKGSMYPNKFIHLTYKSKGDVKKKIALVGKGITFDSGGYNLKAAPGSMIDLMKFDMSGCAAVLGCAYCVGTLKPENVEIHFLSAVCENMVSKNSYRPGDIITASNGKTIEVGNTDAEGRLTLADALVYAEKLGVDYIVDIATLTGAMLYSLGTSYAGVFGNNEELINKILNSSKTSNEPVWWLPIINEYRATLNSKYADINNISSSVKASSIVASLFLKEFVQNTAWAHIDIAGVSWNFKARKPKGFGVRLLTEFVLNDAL

[19] = test system: BJ; assay: cells; format: functional, cell-based; conditions: Homo sapiens
[20] = cytotoxicity toward DRD oncogenic fibroblasts, dose response, cell-based, non-viral oncogenic, luminescence (AID 1934); format: functional; conditions: Homo sapiens
[21] = test system: BJ; assay: cytotoxicity toward BJ-TERT fibroblasts, dose response, cell-based, RAS-independent, luminescence (AID 1933); format: functional; conditions: Homo sapiens
[22] = test system: BJ; assay: cytotoxicity toward BJ-TERT-LT-ST fibroblasts, dose response, cell-based, RAS-independent, luminescence (AID 1935); format: functional; conditions: Homo sapiens;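 note: BJ fibroblasts immortalized with TERT plus LT and ST oncogenes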
[23] = target: Cytochrome P450 2C19 (Homo sapiens, UniProt P33261); assay: Cytochrome panel assay with activity outcomes. Panel member name: p450-cyp2c19 Compounds with AC50 equal or less than 10 uM are considered active; format: functional; conditions: read-out: AC50
[24] = target: Cytochrome P450 2D6 (Homo sapiens, UniProt P10635);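 note: CYP2D6 member of a cytochrome P450 panel assay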
[25] = test system: H9c2; assay: cells; format: functional, cell-based; conditions: Rattus norvegicus, H9c2, Myocardium;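 note: confirmatory concentration-response retest of ultra-high-throughput screening hits for modulation of myocardial damage; cell death induced by hydrogen peroxide oxidative stress; compound pretreatment for 60 min then peroxide exposure for 2 h; potency is for protecting the cells against peroxide damage rather than for killing them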
[26] = target: Paired box protein Pax-8 (Homo sapiens, UniProt Q06710); assay: inhibitors of PAX8-driven TPO luciferase reporter, dose response, RMG-I cells, cherry-pick (AID 687027); format: functional, cell-based;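 note: luciferase reporter driven by Pax8 target thyroperoxidase promoter measured by SteadyGlo luminescence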
[27] = NIH:OVCAR-3 ovarian cancer cell cytotoxicity, dose response, PAX8 inhibitor project, plate reader, dry powder samples (AID 743044); format: functional, cell-based
[28] = P. falciparum Dd2 growth inhibitors, dose response, SYBR Green, cherry-picked samples (AID 1159567); format: functional, cell-based

Sequence of Cytochrome P450 2C9 (P11712 whole entry): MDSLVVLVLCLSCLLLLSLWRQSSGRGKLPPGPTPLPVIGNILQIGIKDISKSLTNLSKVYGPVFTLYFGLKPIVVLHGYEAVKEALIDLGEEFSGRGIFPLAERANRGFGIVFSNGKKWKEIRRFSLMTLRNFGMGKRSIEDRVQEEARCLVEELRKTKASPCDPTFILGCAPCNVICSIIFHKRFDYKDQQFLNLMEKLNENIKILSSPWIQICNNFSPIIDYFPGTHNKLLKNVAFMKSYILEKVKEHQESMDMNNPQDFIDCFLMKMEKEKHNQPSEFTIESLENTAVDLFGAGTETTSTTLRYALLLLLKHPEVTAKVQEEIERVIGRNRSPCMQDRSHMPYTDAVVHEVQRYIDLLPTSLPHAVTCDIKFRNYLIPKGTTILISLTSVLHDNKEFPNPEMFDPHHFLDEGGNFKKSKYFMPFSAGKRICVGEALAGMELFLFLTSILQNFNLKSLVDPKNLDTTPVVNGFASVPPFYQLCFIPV
Sequence of Nonstructural protein 1 (Q194T2 whole entry): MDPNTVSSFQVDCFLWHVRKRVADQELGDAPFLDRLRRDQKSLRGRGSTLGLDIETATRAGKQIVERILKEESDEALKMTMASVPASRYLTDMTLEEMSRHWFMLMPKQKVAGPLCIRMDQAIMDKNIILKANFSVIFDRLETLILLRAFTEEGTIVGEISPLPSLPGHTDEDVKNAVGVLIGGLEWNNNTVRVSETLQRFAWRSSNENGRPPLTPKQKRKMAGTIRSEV
Sequence of Cytochrome P450 2D6 (P10635 whole entry): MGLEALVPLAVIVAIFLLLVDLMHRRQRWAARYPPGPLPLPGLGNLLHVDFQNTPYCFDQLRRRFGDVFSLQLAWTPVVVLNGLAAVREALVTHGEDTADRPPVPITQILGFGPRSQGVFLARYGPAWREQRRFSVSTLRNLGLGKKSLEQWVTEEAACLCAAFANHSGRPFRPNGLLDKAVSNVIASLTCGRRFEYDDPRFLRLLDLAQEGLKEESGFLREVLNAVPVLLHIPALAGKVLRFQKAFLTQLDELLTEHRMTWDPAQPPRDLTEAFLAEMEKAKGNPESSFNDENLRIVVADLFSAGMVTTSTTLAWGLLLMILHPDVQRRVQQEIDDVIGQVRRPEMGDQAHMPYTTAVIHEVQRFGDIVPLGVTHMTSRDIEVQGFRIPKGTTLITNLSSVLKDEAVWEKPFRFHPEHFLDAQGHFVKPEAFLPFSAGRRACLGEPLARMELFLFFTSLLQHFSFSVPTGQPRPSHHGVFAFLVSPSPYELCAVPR
Sequence of Cytochrome P450 2C19 (P33261 whole entry): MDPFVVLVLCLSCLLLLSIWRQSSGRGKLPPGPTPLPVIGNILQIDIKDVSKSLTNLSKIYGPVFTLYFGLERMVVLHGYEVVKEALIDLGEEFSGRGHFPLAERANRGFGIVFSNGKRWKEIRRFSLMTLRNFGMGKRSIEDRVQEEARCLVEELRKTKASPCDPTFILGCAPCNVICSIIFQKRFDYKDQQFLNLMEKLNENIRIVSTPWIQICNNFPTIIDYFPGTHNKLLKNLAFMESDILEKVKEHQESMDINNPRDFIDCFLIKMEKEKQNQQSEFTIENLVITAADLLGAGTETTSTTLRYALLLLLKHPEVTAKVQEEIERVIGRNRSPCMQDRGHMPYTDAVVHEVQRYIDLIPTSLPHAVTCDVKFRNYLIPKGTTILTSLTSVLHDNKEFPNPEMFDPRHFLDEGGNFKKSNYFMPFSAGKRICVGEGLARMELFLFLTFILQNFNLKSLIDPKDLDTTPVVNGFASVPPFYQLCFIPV
Sequence of Paired box protein Pax-8 (Q06710 whole entry): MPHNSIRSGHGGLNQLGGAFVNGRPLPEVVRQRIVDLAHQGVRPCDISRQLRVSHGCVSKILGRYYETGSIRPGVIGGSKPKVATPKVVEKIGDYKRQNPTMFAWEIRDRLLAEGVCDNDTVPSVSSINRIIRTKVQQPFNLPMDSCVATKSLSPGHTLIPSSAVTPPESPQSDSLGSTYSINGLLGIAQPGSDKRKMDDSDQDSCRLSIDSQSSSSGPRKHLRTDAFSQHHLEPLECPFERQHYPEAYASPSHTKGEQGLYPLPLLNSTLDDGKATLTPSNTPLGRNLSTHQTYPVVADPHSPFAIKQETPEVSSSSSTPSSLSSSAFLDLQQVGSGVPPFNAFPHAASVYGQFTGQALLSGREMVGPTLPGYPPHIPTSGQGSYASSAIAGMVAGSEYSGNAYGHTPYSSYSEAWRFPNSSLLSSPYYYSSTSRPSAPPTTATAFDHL
Sequence of Cytochrome P450 3A4 (P08684 whole entry): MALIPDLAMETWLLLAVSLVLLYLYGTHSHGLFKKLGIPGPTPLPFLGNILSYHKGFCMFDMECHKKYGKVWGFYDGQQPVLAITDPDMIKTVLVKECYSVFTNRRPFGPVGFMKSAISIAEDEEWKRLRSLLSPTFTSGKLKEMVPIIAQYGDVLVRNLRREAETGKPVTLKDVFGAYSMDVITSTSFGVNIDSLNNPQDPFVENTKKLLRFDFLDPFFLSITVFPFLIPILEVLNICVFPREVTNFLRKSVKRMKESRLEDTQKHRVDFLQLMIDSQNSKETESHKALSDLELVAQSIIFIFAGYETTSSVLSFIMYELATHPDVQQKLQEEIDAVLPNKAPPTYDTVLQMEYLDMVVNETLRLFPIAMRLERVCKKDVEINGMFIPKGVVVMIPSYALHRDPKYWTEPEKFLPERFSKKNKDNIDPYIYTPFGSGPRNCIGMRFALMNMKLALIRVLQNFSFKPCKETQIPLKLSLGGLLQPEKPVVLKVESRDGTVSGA
Sequence of FAD-linked sulfhydryl oxidase ALR (P55789 whole entry): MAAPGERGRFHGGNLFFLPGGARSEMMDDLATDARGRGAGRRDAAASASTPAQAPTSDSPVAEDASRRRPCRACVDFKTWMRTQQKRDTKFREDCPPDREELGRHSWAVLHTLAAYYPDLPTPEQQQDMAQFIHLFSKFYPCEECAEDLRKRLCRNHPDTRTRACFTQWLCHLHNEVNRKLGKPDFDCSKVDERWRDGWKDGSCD

With `O=S(=O)(c1ccc(NC(=S)NN=C2CCCCC2)cc1)N1CCOCC1` the IC50 [1] was 24.8 µM (active).
With `Cc1[nH]c2ccccc2c1CN1CCc2ccccc2C1` the EC50 [2] was > 29.9 µM (inactive) and the IC50 [3] was > 29.9 µM (inactive).
In the case of `COc1ccc(NC(=O)c2cc(CC(C)C)nc3ccccc23)cc1`, the AC50 [4] is reported as 1.11 µM (active), the AC50 [5] is reported as 0.655 µM (active) and the AC50 [6] is reported as < 0.26 µM (active). The EC50 [7] was > 120 µM (not active), the EC50 [8] was > 120 µM (not active) and the AC50 [9] was 1.06 µM (active).
For `CC(NC1=NCCS1)c1ccccc1` (configuration not stated), the EC50 [2] was > 29.9 µM (inactive) and the IC50 [3] was > 29.9 µM (inactive).
With `CNCc1ccccc1Sc1ccc(OC)c(OC)c1` the AC50 [10] was > 20 µM (inactive).
In the case of `COc1ccc(Oc2ncc3nc(-c4cn(C)c5ccccc45)c(=O)n(C)c3n2)cc1`, the AC50 [11] is reported as “inconclusive” and the AC50 [12] is reported as 15.8 µM (inconclusive).
For `Cc1nc2cnc(N(C)C)nc2n(Cc2ccc(F)cc2)c1=O`, the AC50 [11] was “inconclusive”.
For `COc1ccc(SC[C@H](Cc2ccccc2)N2CCN(CCc3ccccc3)CCC2=O)cc1`, the CC50 [13] was > 40 µM (active).
In the case of `CC1(C)Cc2c(C#N)c(N3CCN(C(=O)c4ccccc4)CC3)nc(Cc3ccccc3)c2CO1`, the CC50 [13] is reported as 39 µM (active).
In the case of `CN(C)c1ccc(C(=O)Nc2nc3c(s2)CCCC3)cc1`, the AC50 [14] is reported as 51.1 µM (active), the AC50 [15] is reported as 8.81 µM (active) and the AC50 [16] is reported as 11.4 µM (active). For the same compound, the AC50 [17] was 0.188 µM (active).
In the case of `Cc1noc(NS(=O)(=O)c2ccc(NC(=O)CSc3nc4ccccc4s3)cc2)c1C`, the IC50 [18] is reported as 15.3 µM (active).
For `CCOc1ccccc1NC1=C(Cl)C(=O)N(Cc2ccccc2)C1=O`, the EC50 [19] was > 150 µM (not active), the EC50 [20] was > 150 µM (not active) and the EC50 [21] was > 150 µM (not active). The EC50 [22] was > 150 µM (not active).
For `CCCn1c2c(c(O)c(C(=O)NCCCN(CC)CC)c1=O)CCCC2`, the AC50 [10] was > 20 µM (inactive).
For `CC(=O)NC1C(c2nc3ccccc3s2)=C(c2ccccc2)C(=O)N1c1ccc(C)cc1` (configuration not stated), the CC50 [13] was > 40 µM (active).
For `COc1ccccc1CNc1cc(-c2cccc(NS(C)(=O)=O)c2)ncn1`, the AC50 [11] was “inconclusive” and the AC50 [23] was 20 µM (inconclusive).
With `CCC(=O)Nc1cccc(-c2nnc(-c3cccc(NC(=O)CC)c3)o2)c1` the AC50 [11] was “inconclusive”, the AC50 [24] was 17.8 µM (inconclusive) and the IC50 [25] was > 79 µM (inactive).
For `Cc1ccc(OCC(=O)Nc2ccc(O)c(C(=O)O)c2)cc1C`, the IC50 [18] was 19.5 µM (active).
With `CSc1cccc(CNC(=O)C2CCC(=O)N(Cc3cccc(C(F)(F)F)c3)C2)c1` (configuration not stated) the CC50 [13] was > 40 µM (active).
For `Cc1nc2ncnn2c(N2CCCC(C(=O)Nc3ccc4c(c3)CCC4)C2)c1C` (configuration not stated), the AC50 [4] was 8.01 µM (active), the AC50 [5] was 3.21 µM (active) and the AC50 [6] was 17.1 µM (active). For the same compound, the AC50 [9] was 3.66 µM (active).
For `O=S(=O)(c1ccc(Cl)cc1)N1CCCN(c2nc3ccc(Cl)cc3s2)CC1`, the AC50 [4] was 5.18 µM (active), the AC50 [5] was 3.94 µM (active) and the AC50 [6] was 0.922 µM (active). The AC50 [9] was 4.14 µM (active).
In the case of `CC1(C)[N+]([O-])=CC(c2cccs2)=[N+]1[O-]`, the IC50 [18] is reported as 22.7 µM (active).
For `COCCOC(=O)c1[nH]c2c(c1C)C(=O)CC(c1cccs1)C2` (configuration not stated), the EC50 [19] was 66.4 µM (active), the EC50 [20] was 12.9 µM (active) and the EC50 [21] was 4.56 µM (active). For the same compound, the EC50 [22] was 3.8 µM (active).
With `CN1C(C(=O)NCCc2cccs2)CC2Cn3c(nc4ccccc43)C21` (configuration not stated) the EC50 [2] was > 29.9 µM (inactive) and the IC50 [3] was > 29.9 µM (inactive).
In the case of `C[C@@H]1CN([C@H](C)CO)C(=O)c2cc(NS(=O)(=O)c3cccs3)ccc2O[C@@H](C)CCCCO[C@@H]1CN(C)Cc1ccc(C(F)(F)F)cc1`, the AC50 [26] is reported as 4.55 µM (active) and the AC50 [27] is reported as 58.7 µM (active).
In the case of `CCOc1cccc(/C=N/N2C(=O)CSC2=S)c1O`, the IC50 [1] is reported as 1.83 µM (active).
With `COc1ccc(/N=C(/C2=C(O)CCC2)C2CCCCC2)cc1` the CC50 [13] was > 40 µM (active).
With `C/C=C/c1ccc2n(c1=O)C[C@H]1[C@H](CO)[C@@H](C(=O)N3CCC(Cc4ccccc4)CC3)N(CCC)[C@@H]21.C/C=C\c1ccc2n(c1=O)C[C@H]1[C@H](CO)[C@@H](C(=O)N3CCC(Cc4ccccc4)CC3)N(CCC)[C@@H]21` the AC50 [28] was 15.8 µM (active).
For `C[C@@H]1CN([C@@H](C)CO)C(=O)c2cc(C#Cc3ccccc3)cnc2O[C@H]1CN(C)C(=O)CN(C)C`, the AC50 [28] was 5.45 µM (active).
In the case of `C=CCC1C=C(Cc2ccccc2)CC(CC=C)N1` (configuration not stated), the AC50 [10] is reported as > 20 µM (inactive).
